Results as given in PubChem BioAssay AID1918993 (Molecular Pharmacology Branch, DTP, NCI, 2023).
Each block holds one molecule with its values, some of them ahead of it.

Tested on: 233499-124-R-J3-PDC complex spheroid growth
Assay: Anticancer human tumor 233499-124-R-J3-PDC patient-derived colon adenocarcinoma cell line growth inhibition [AhR]
Details: for IC50: curve of first compound; for viability, T/C: stronger effect = lower value
Procedure, shortened: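 Complex tumor spheroids co-cultured with HUVEC and human MSC stroma; AhR antagonists tested in combination with standard-of-care and investigational agents. Top concentration at or near clinical Cmax (else 10 microM), half-log dilutions; growth expressed as percent test/control.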

[1] = second compound 0.1 µM, first compound 0.0316 µM
[2] = second compound 0.1 µM, first compound 0.1 µM
[3] = second compound 0.1 µM, first compound 0.316 µM
[4] = second compound 0.1 µM, first compound 1 µM
[5] = second compound 0.316 µM, first compound 0.0316 µM
[6] = second compound 0.316 µM, first compound 0.1 µM
[7] = second compound 0.316 µM, first compound 0.316 µM
[8] = second compound 0.316 µM, first compound 1 µM
[9] = second compound 1 µM, first compound 0.0316 µM
[10] = second compound 1 µM, first compound 0.1 µM
[11] = second compound 1 µM, first compound 0.316 µM
[12] = second compound 1 µM, first compound 1 µM
[13] = second compound 3.16 µM, first compound 0.0316 µM
[14] = second compound 3.16 µM, first compound 0.1 µM
[15] = second compound 3.16 µM, first compound 0.316 µM
[16] = second compound 3.16 µM, first compound 1 µM
[17] = second compound 10 µM, first compound 0.0316 µM
[18] = second compound 10 µM, first compound 0.1 µM
[19] = second compound 10 µM, first compound 0.316 µM
[20] = second compound 10 µM, first compound 1 µM
[21] = second compound 0.1 µM, first compound 0.00949 µM
[22] = second compound 0.1 µM, first compound 0.03 µM
[23] = second compound 0.1 µM, first compound 0.0949 µM
[24] = second compound 0.1 µM, first compound 0.3 µM
[25] = second compound 0.1 µM, first compound 0.949 µM
[26] = second compound 0.1 µM, first compound 3 µM
[27] = second compound 0.316 µM, first compound 0.00949 µM
[28] = second compound 0.316 µM, first compound 0.03 µM
[29] = second compound 0.316 µM, first compound 0.0949 µM
[30] = second compound 0.316 µM, first compound 0.3 µM
[31] = second compound 0.316 µM, first compound 0.949 µM
[32] = second compound 0.316 µM, first compound 3 µM
[33] = second compound 1 µM, first compound 0.00949 µM
[34] = second compound 1 µM, first compound 0.03 µM
[35] = second compound 1 µM, first compound 0.0949 µM
[36] = second compound 1 µM, first compound 0.3 µM
[37] = second compound 1 µM, first compound 0.949 µM
[38] = second compound 1 µM, first compound 3 µM
[39] = second compound 3.16 µM, first compound 0.00949 µM
[40] = second compound 3.16 µM, first compound 0.03 µM
[41] = second compound 3.16 µM, first compound 0.0949 µM
[42] = second compound 3.16 µM, first compound 0.3 µM
[43] = second compound 3.16 µM, first compound 0.949 µM
[44] = second compound 3.16 µM, first compound 3 µM
[45] = second compound 10 µM, first compound 0.00949 µM
[46] = second compound 10 µM, first compound 0.03 µM
[47] = second compound 10 µM, first compound 0.0949 µM
[48] = second compound 10 µM, first compound 0.3 µM
[49] = second compound 10 µM, first compound 0.949 µM
[50] = second compound 10 µM, first compound 3 µM
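Note: spheroids exposed to agents for seven days before reading.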

SMILES: CC1COCCN1c1cc(C2(S(C)(=N)=O)CC2)nc(-c2ccnc3[nH]ccc23)n1 (stereo not given) + CC(CO)NC(=O)c1cc(-c2ccc(Cl)cc2)nn(-c2cnn(C)c2)c1=O
IC50 (second compound 0.1 µM): > 10000 nM
IC50 (second compound 0.316 µM): > 10000 nM
IC50 (second compound 1 µM): > 10000 nM
IC50 (second compound 3.16 µM): > 10000 nM
IC50 (second compound 10 µM): > 10000 nM
viability, T/C [1]: 101%
viability, T/C [2]: 97.2%
viability, T/C [3]: 94.2%
viability, T/C [4]: 91%
viability, T/C (second compound 0.1 µM, first compound 3.16 µM): 75.8%
viability, T/C (second compound 0.1 µM, first compound 10 µM): 74.1%
viability, T/C [5]: 88.2%
viability, T/C [6]: 89.1%
viability, T/C [7]: 97.3%
viability, T/C [8]: 83%
viability, T/C (second compound 0.316 µM, first compound 3.16 µM): 87.4%
viability, T/C (second compound 0.316 µM, first compound 10 µM): 72.1%
viability, T/C [9]: 79.7%
viability, T/C [10]: 96.2%
viability, T/C [11]: 90.3%
viability, T/C [12]: 92.3%
viability, T/C (second compound 1 µM, first compound 3.16 µM): 86.9%
viability, T/C (second compound 1 µM, first compound 10 µM): 69%
viability, T/C [13]: 98.8%
viability, T/C [14]: 95.8%
viability, T/C [15]: 91.3%
viability, T/C [16]: 85.9%
viability, T/C (second compound 3.16 µM, first compound 3.16 µM): 82.5%
viability, T/C (second compound 3.16 µM, first compound 10 µM): 68.3%
viability, T/C [17]: 72.5%
viability, T/C [18]: 79%
viability, T/C [19]: 82.2%
viability, T/C [20]: 79.5%
viability, T/C (second compound 10 µM, first compound 3.16 µM): 61.8%
viability, T/C (second compound 10 µM, first compound 10 µM): 56.6%

SMILES: CCN(c1cc(-c2ccc(CN3CCOCC3)cc2)cc(C(=O)NCc2c(C)cc(C)[nH]c2=O)c1C)C1CCOCC1 + CC(CO)NC(=O)c1cc(-c2ccc(Cl)cc2)nn(-c2cnn(C)c2)c1=O
IC50 (second compound 0.1 µM): > 3000 nM
IC50 (second compound 0.316 µM): > 3000 nM
IC50 (second compound 1 µM): > 3000 nM
IC50 (second compound 3.16 µM): > 3000 nM
IC50 (second compound 10 µM): > 3000 nM
viability, T/C [21]: 100%
viability, T/C [22]: 86.8%
viability, T/C [23]: 88.2%
viability, T/C [24]: 82.9%
viability, T/C [25]: 93.5%
viability, T/C [26]: 94.3%
viability, T/C [27]: 103%
viability, T/C [28]: 98.6%
viability, T/C [29]: 94.9%
viability, T/C [30]: 85.6%
viability, T/C [31]: 99.9%
viability, T/C [32]: 83.8%
viability, T/C [33]: 95.6%
viability, T/C [34]: 96.1%
viability, T/C [35]: 91%
viability, T/C [36]: 95.4%
viability, T/C [37]: 88.4%
viability, T/C [38]: 90.2%
viability, T/C [39]: 88%
viability, T/C [40]: 82%
viability, T/C [41]: 85.6%
viability, T/C [42]: 91.9%
viability, T/C [43]: 98.7%
viability, T/C [44]: 86.6%
viability, T/C [45]: 80.9%
viability, T/C [46]: 77.2%
viability, T/C [47]: 79.7%
viability, T/C [48]: 82.5%
viability, T/C [49]: 73.5%
viability, T/C [50]: 83.1%

SMILES: O=C(C=Cn1cnc(-c2cc(C(F)(F)F)cc(C(F)(F)F)c2)n1)NNc1cnccn1 + CC(CO)NC(=O)c1cc(-c2ccc(Cl)cc2)nn(-c2cnn(C)c2)c1=O
IC50 (second compound 0.1 µM): > 3000 nM
IC50 (second compound 0.316 µM): > 3000 nM
IC50 (second compound 1 µM): > 3000 nM
IC50 (second compound 3.16 µM): > 3000 nM
IC50 (second compound 10 µM): 2590 nM
viability, T/C [21]: 92.4%
viability, T/C [22]: 102%
viability, T/C [23]: 92.2%
viability, T/C [24]: 95.1%
viability, T/C [25]: 82.3%
viability, T/C [26]: 59.6%
viability, T/C [27]: 93.8%
viability, T/C [28]: 89.6%
viability, T/C [29]: 101%
viability, T/C [30]: 99.7%
viability, T/C [31]: 58.9%
viability, T/C [32]: 68.4%
viability, T/C [33]: 79.7%
viability, T/C [34]: 101%
viability, T/C [35]: 93.9%
viability, T/C [36]: 76.5%
viability, T/C [37]: 59.1%
viability, T/C [38]: 56.1%
viability, T/C [39]: 91.3%
viability, T/C [40]: 97%
viability, T/C [41]: 84.9%
viability, T/C [42]: 99%
viability, T/C [43]: 62.7%
viability, T/C [44]: 56.6%
viability, T/C [45]: 93.1%
viability, T/C [46]: 87.2%
viability, T/C [47]: 71.8%
viability, T/C [48]: 106%
viability, T/C [49]: 82%
viability, T/C [50]: 44.5%

More lines, main results first:

IC50 (second compound 0.1 µM): 516 nM
IC50 (second compound 0.316 µM): 609 nM
IC50 (second compound 1 µM): 547 nM
IC50 (second compound 3.16 µM): 650 nM
IC50 (second compound 10 µM): 230 nM
SMILES: CC1COCCN1c1cc(-c2ccnn2C)c2ccnc(-c3ccn[nH]3)c2n1 (stereo not given) + CC(CO)NC(=O)c1cc(-c2ccc(Cl)cc2)nn(-c2cnn(C)c2)c1=O
viability, T/C (second compound 0.1 µM, first compound 0.00316 µM): 97.6%
viability, T/C (second compound 0.1 µM, first compound 0.01 µM): 95.3%
viability, T/C [1]: 89.1%
viability, T/C [2]: 83.9%
viability, T/C [3]: 63%
viability, T/C [4]: 31.7%
viability, T/C (second compound 0.316 µM, first compound 0.00316 µM): 90.3%
viability, T/C (second compound 0.316 µM, first compound 0.01 µM): 102%
viability, T/C [5]: 90.3%
viability, T/C [6]: 84.9%
viability, T/C [7]: 68.1%
viability, T/C [8]: 36.5%
viability, T/C (second compound 1 µM, first compound 0.00316 µM): 106%
viability, T/C (second compound 1 µM, first compound 0.01 µM): 101%
viability, T/C [9]: 97.9%
viability, T/C [10]: 82.5%
viability, T/C [11]: 60.8%
viability, T/C [12]: 38.2%
viability, T/C (second compound 3.16 µM, first compound 0.00316 µM): 81.9%
viability, T/C (second compound 3.16 µM, first compound 0.01 µM): 86.9%
viability, T/C [13]: 87.2%
viability, T/C [14]: 85.6%
viability, T/C [15]: 60.8%
viability, T/C [16]: 43.6%
viability, T/C (second compound 10 µM, first compound 0.00316 µM): 83.3%
viability, T/C (second compound 10 µM, first compound 0.01 µM): 90%
viability, T/C [17]: 80.8%
viability, T/C [18]: 59%
viability, T/C [19]: 49%
viability, T/C [20]: 33.4%

IC50 (second compound 0.1 µM): > 300 nM
IC50 (second compound 0.316 µM): > 300 nM
IC50 (second compound 1 µM): > 300 nM
IC50 (second compound 3.16 µM): > 300 nM
IC50 (second compound 10 µM): > 300 nM
SMILES: Nc1ncn(C2CC(O)C(CO)S2)c(=O)n1 (stereo not given) + CC(CO)NC(=O)c1cc(-c2ccc(Cl)cc2)nn(-c2cnn(C)c2)c1=O
viability, T/C (second compound 0.1 µM, first compound 0.000949 µM): 106%
viability, T/C (second compound 0.1 µM, first compound 0.003 µM): 109%
viability, T/C [21]: 92.5%
viability, T/C [22]: 109%
viability, T/C [23]: 104%
viability, T/C [24]: 86.3%
viability, T/C (second compound 0.316 µM, first compound 0.000949 µM): 99.5%
viability, T/C (second compound 0.316 µM, first compound 0.003 µM): 95.5%
viability, T/C [27]: 105%
viability, T/C [28]: 97%
viability, T/C [29]: 104%
viability, T/C [30]: 95%
viability, T/C (second compound 1 µM, first compound 0.000949 µM): 98.2%
viability, T/C (second compound 1 µM, first compound 0.003 µM): 105%
viability, T/C [33]: 113%
viability, T/C [34]: 100%
viability, T/C [35]: 106%
viability, T/C [36]: 96.9%
viability, T/C (second compound 3.16 µM, first compound 0.000949 µM): 103%
viability, T/C (second compound 3.16 µM, first compound 0.003 µM): 100%
viability, T/C [39]: 103%
viability, T/C [40]: 112%
viability, T/C [41]: 89.5%
viability, T/C [42]: 90.5%
viability, T/C (second compound 10 µM, first compound 0.000949 µM): 86.8%
viability, T/C (second compound 10 µM, first compound 0.003 µM): 84.1%
viability, T/C [45]: 101%
viability, T/C [46]: 100%
viability, T/C [47]: 102%
viability, T/C [48]: 87.6%
